Measured values as given in ChEMBL document CHEMBL1128242, “Polyiodinated triglyceride analogs as potential computed tomography imaging agents for the liver” (J Med Chem, 1995).
Values joined by “and” are separate entries in the source; they are usually repeats but may differ in a detail not shown here. Equal values may be shown once.

What was measured:
Assay type in all cases: ADME, organism-based
[1] = system: Rattus norvegicus; test: Distribution of radioactivity was determined in blood at 24 hr after intravenous administration of [125I]-labeled 2-oleoglycerol 1,3-Bis-[omega-(3-amino-2,4,6-triiodophenyl)alkanoates] in rats; conditions: in vivo
[2] = system: Rattus norvegicus; test: Distribution of radioactivity was determined in spleen at 3h after intravenous administration of 1,3-Disubstituted Triacylglycerols in rats; conditions: in vivo
[3] = system: Rattus norvegicus; test: Distribution of radioactivity was determined in heart at 30 min after intravenous administration of [125I]-labeled 2-oleoglycerol 1,3-Bis-[omega-(3-amino-2,4,6-triiodophenyl)alkanoates] in rats; conditions: in vivo, 0.5 h
[4] = system: Rattus norvegicus; test: Distribution of radioactivity was determined in blood at 30 min after intravenous administration of [125I]-labeled 2-oleoglycerol 1,3-Bis-[omega-(3-amino-2,4,6-triiodophenyl)alkanoates] in rats; conditions: in vivo, 0.5 h
[5] = system: Rattus norvegicus; test: Distribution of radioactivity was determined in spleen at 30 min after intravenous administration of 1,3-Disubstituted Triacylglycerols in rats; conditions: in vivo, 0.5 h
[6] = system: Rattus norvegicus; test: Analysis of lipid-soluble radioactivity in plasma 0.5 hour after iv administration of [125I]-labeled 2-Oleoyl 1,3-disubstituted Triacylglycerols and represented as % CHCl3/CH3OH from rat; conditions: in vivo
[7] = system: Rattus norvegicus; test: Distribution of radioactivity was determined in kidney at 24 hr after intravenous administration of [125I]-labeled 2-oleoglycerol 1,3-Bis-[omega-(3-amino-2,4,6-triiodophenyl)alkanoates] in rats; conditions: in vivo
[8] = system: Rattus norvegicus; test: Distribution of radioactivity was determined in liver at 3h after intravenous administration of [125I]-labeled 2-oleoglycerol 1,3-Bis-[omega-(3-amino-2,4,6-triiodophenyl)alkanoates] in rats; conditions: in vivo
[9] = system: Rattus norvegicus; test: Polyacrylamide Gel Electrophoresis (PAGE) to determined the concentration of below albumin(BA) in rats after iv administration of [125I]-labeled 2-Oleolyl 1,3-disubstituted triglycerols was reported; conditions: in vivo
[10] = system: Rattus norvegicus; test: Distribution of radioactivity was determined in kidney at 30 min after intravenous administration of [125I]-labeled 2-oleoglycerol 1,3-Bis-[omega-(3-amino-2,4,6-triiodophenyl)alkanoates] in rats; conditions: in vivo, 0.5 h
[11] = system: Rattus norvegicus; test: Polyacrylamide Gel Electrophoresis (PAGE) to determined the concentration of low density lipoprotein (LDL) in rats after iv administration of [125I]-labeled 2-Oleolyl 1,3-disubstituted triglycerols was reported; conditions: in vivo
[12] = system: Rattus norvegicus; test: Distribution of radioactivity was determined in liver at 24 hr after intravenous administration of 1,3-Disubstituted Triacylglycerols in rats; conditions: in vivo
[13] = system: Rattus norvegicus; test: Analysis of lipid-soluble radioactivity in plasma 0.5 hour after iv administration of [125I]-labeled 2-Oleoyl 1,3-disubstituted Triacylglycerols expressed as %parent compound (by TLC with authentic [125I]-labeled standard) from rat; conditions: in vivo

Distribution of radioactivity [1] [% dose/g]	Distribution of radioactivity [2] [% dose/organ]	Distribution of radioactivity [3] [% dose/g]	Distribution of radioactivity [4] [% dose/g]	Distribution of radioactivity [5] [% dose/organ]	Lipid-soluble radioactivity [6]	Distribution of radioactivity [7] [% dose/g]	Distribution of radioactivity [8] [% dose/g]	Radioactivity [9] [%]	Distribution of radioactivity [10] [% dose/g]	Radioactivity [11] [%]	Distribution of radioactivity [12] [% dose/organ]	Lipid-soluble radioactivity [13]	SMILES
0.01	14.5	0.36	0.69	12	54.2 and 86.3	0.07	10.3	1.1	0.1	0.6	72.5		CCCCCCCC/C=C/CCCCCCCC(=O)OC(COC(=O)Cc1c(I)cc(I)c(N)c1I)COC(=O)Cc1c(I)cc(I)c(N)c1I
0.14	8	0.59	0.08	9.5	77.4	0.2	6.94	0.1	0.05	8.1	36.1	42.3	CCCCCCCC/C=C/CCCCCCCC(=O)OC(COC(=O)CCCCc1c(I)cc(I)c(N)c1I)COC(=O)CCCCc1c(I)cc(I)c(N)c1I
0.1	11.3	0.23	0.38	13.9	89.9	0.25	8.74	0.6	0.09	4.8	34.9	82.2	CCCCCCCC/C=C/CCCCCCCC(=O)OC(COC(=O)CCCCCc1c(I)cc(I)c(N)c1I)COC(=O)CCCCCc1c(I)cc(I)c(N)c1I
0.01	11.3	0.84	0.26	14.4	88.2	0.05	9	1.5	0.07	7.4	77	26.5	CCCCCCCC/C=C/CCCCCCCC(=O)OC(COC(=O)C(CC)Cc1c(I)cc(I)c(N)c1I)COC(=O)C(CC)Cc1c(I)cc(I)c(N)c1I (centres undefined)
0.22	8.2	0.55	0.59	10.5	36.1	0.22	5.84	5.1	0.2	0.2	9.6	0	CCCCCCCC/C=C/CCCCCCCC(=O)OC(COC(=O)CCCCCCc1c(I)cc(I)c(N)c1I)COC(=O)CCCCCCc1c(I)cc(I)c(N)c1I
